# The source made the active and inactive calls. No cut-off for these calls is given here.
# Experiments:
# [1] = tested on: Liposcelis bostrychophila; test: Insecticidal activity against Liposcelis bostrychophila (booklice) in compound pre-treated maize grains assessed as decrease in progeny production at 1 ppm after 30 days; format: functional, organism-based
# [2] = tested on: Liposcelis paeta; test: Insecticidal activity against Liposcelis paeta in compound pre-treated wheat grains assessed as mortality at 1 ppm after 14 days (reference value: 5.6 +/-1.8%); format: functional
# [3] = tested on: Liposcelis bostrychophila; test: Insecticidal activity against Liposcelis bostrychophila (booklice) in compound pre-treated wheat grains assessed as mortality at 1 ppm after 14 days (reference value: 6.8 +/-3.3%); format: functional
# [4] = tested on: Liposcelis bostrychophila; test: Insecticidal activity against Liposcelis bostrychophila (booklice) in compound pre-treated wheat grains assessed as effect on progeny production at 1 ppm after 30 days; format: functional, organism-based
# [5] = tested on: Lepinotus reticulatus; test: Insecticidal activity against Lepinotus reticulatus in compound pre-treated wheat grains assessed as mortality at 1 ppm after 14 days (reference value: 21.1 +/-7.4%); format: functional
# [6] = tested on: Liposcelis paeta; test: Insecticidal activity against Liposcelis paeta in compound pre-treated wheat grains assessed as mortality at 1 ppm after 7 days (reference value: 7.8 +/-3.2%); format: functional
# [7] = tested on: Liposcelis bostrychophila; test: Insecticidal activity against Liposcelis bostrychophila (booklice) in compound pre-treated maize grains assessed as mortality at 1 ppm after 7 days (reference value: 8.9 +/-2.6%); format: functional
# [8] = tested on: Lepinotus reticulatus; test: Insecticidal activity against Lepinotus reticulatus in compound pre-treated maize grains assessed as mortality at 1 ppm after 7 days (reference value: 34.4 +/-11.4%); format: functional
# [9] = tested on: Liposcelis entomophila; test: Insecticidal activity against Liposcelis entomophila in compound pre-treated maize grains assessed as mortality at 1 ppm after 7 days (reference value: 15.6 +/-6.9%); format: functional
# [10] = tested on: Liposcelis bostrychophila; test: Insecticidal activity against Liposcelis bostrychophila (booklice) in compound pre-treated wheat grains assessed as mortality at 1 ppm after 7 days (reference value: 3.3 +/-1.7%); format: functional
# [11] = tested on: Liposcelis bostrychophila; test: Insecticidal activity against Liposcelis bostrychophila (booklice) in compound pre-treated rice grains assessed as effect on progeny production at 1 ppm after 30 days; format: functional, organism-based
# [12] = tested on: Lepinotus reticulatus; test: Insecticidal activity against Lepinotus reticulatus in compound pre-treated maize grains assessed as mortality at 1 ppm after 14 days (reference value: 61.1 +/-11.9%); format: functional
# [13] = tested on: Lepinotus reticulatus; test: Insecticidal activity against Lepinotus reticulatus in compound pre-treated maize grains assessed as decrease in progeny production at 1 ppm after 30 days; format: functional, organism-based
# [14] = tested on: Liposcelis entomophila; test: Insecticidal activity against Liposcelis entomophila in compound pre-treated maize grains assessed as mortality at 1 ppm after 14 days (reference value: 14.4 +/-4.1%); format: functional
# [15] = tested on: Liposcelis bostrychophila; test: Insecticidal activity against Liposcelis bostrychophila (booklice) in compound pre-treated rice grains assessed as mortality at 1 ppm after 14 days (reference value: 9.7 +/-2.4%); format: functional
# [16] = tested on: Lepinotus reticulatus; test: Insecticidal activity against Lepinotus reticulatus in compound pre-treated rice grains assessed as mortality at 1 ppm after 14 days (reference value: 15.5 +/-4.1%); format: functional
# [17] = tested on: Lepinotus reticulatus; test: Insecticidal activity against Lepinotus reticulatus in compound pre-treated rice grains assessed as decrease in progeny production at 1 ppm after 30 days; format: functional, organism-based
# [18] = tested on: Liposcelis paeta; test: Insecticidal activity against Liposcelis paeta in compound pre-treated rice grains assessed as mortality at 1 ppm after 7 days (reference value: 3.3 +/-1.7%); format: functional
# [19] = tested on: Liposcelis entomophila; test: Insecticidal activity against Liposcelis entomophila in compound pre-treated maize grains assessed as decrease in progeny production at 1 ppm after 30 days; format: functional, organism-based
# [20] = tested on: Liposcelis entomophila; test: Insecticidal activity against Liposcelis entomophila in compound pre-treated wheat grains assessed as mortality at 1 ppm after 7 days (reference value: 5.6 +/-2.9%); format: functional
# [21] = tested on: Liposcelis entomophila; test: Insecticidal activity against Liposcelis entomophila in compound pre-treated wheat grains assessed as mortality at 1 ppm after 14 days (reference value: 13.3 +/-4.7%); format: functional
# [22] = tested on: Liposcelis entomophila; test: Insecticidal activity against Liposcelis entomophila in compound pre-treated rice grains assessed as mortality at 1 ppm after 7 days (reference value: 3.3 +/-2.6%); format: functional
# [23] = tested on: Liposcelis paeta; test: Insecticidal activity against Liposcelis paeta in compound pre-treated maize grains assessed as mortality at 1 ppm after 14 days (reference value: 14.1 +/-4.1%); format: functional
# [24] = tested on: Liposcelis entomophila; test: Insecticidal activity against Liposcelis entomophila in compound pre-treated rice grains assessed as mortality at 1 ppm after 14 days (reference value: 10.0 +/-4.7%); format: functional
# [25] = tested on: Lepinotus reticulatus; test: Insecticidal activity against Lepinotus reticulatus in compound pre-treated wheat grains assessed as decrease in progeny production at 1 ppm after 30 days; format: functional, organism-based
# [26] = tested on: Liposcelis bostrychophila; test: Insecticidal activity against Liposcelis bostrychophila (booklice) in compound pre-treated rice grains assessed as mortality at 1 ppm after 7 days (reference value: 8.9 +/-4.5%); format: functional
# [27] = tested on: Lepinotus reticulatus; test: Insecticidal activity against Lepinotus reticulatus in compound pre-treated wheat grains assessed as mortality at 1 ppm after 7 days (reference value: 10.0 +/-5.3%); format: functional
# [28] = tested on: Lepinotus reticulatus; test: Insecticidal activity against Lepinotus reticulatus in compound pre-treated rice grains assessed as mortality at 1 ppm after 7 days (reference value: 6.8 +/-2.4%); format: functional
# [29] = tested on: Liposcelis paeta; test: Insecticidal activity against Liposcelis paeta in compound pre-treated maize grains assessed as mortality at 1 ppm after 7 days (reference value: 13.3 +/-3.3%); format: functional
# [30] = tested on: Liposcelis bostrychophila; test: Insecticidal activity against Liposcelis bostrychophila (booklice) in compound pre-treated maize grains assessed as mortality at 1 ppm after 14 days (reference value: 13.5 +/-5.3%); format: functional
# [31] = tested on: Liposcelis paeta; test: Insecticidal activity against Liposcelis paeta in compound pre-treated maize grains assessed as effect on progeny production at 1 ppm after 30 days; format: functional, organism-based
# [32] = tested on: Liposcelis entomophila; test: Insecticidal activity against Liposcelis entomophila in compound pre-treated wheat grains assessed as decrease in progeny production at 1 ppm after 30 days; format: functional, organism-based
# [33] = tested on: Liposcelis paeta; test: Insecticidal activity against Liposcelis paeta in compound pre-treated rice grains assessed as mortality at 1 ppm after 14 days (reference value: 3.4 +/-1.6%); format: functional
# [34] = tested on: Liposcelis paeta; test: Insecticidal activity against Liposcelis paeta in compound pre-treated maize grains assessed as mortality at 8 ppm after 14 days (reference value: 14.1 +/-4.1%); format: functional
# [35] = tested on: Liposcelis entomophila; test: Insecticidal activity against Liposcelis entomophila in compound pre-treated maize grains assessed as mortality at 8 ppm after 14 days (reference value: 14.4 +/-4.1%); format: functional
# [36] = tested on: Liposcelis entomophila; test: Insecticidal activity against Liposcelis entomophila in compound pre-treated maize grains assessed as mortality at 8 ppm after 7 days (reference value: 15.6 +/-6.9%); format: functional
# [37] = tested on: Liposcelis bostrychophila; test: Insecticidal activity against Liposcelis bostrychophila (booklice) in compound pre-treated maize grains assessed as mortality at 8 ppm after 7 days (reference value: 8.9 +/-2.6%); format: functional
# [38] = tested on: Liposcelis entomophila; test: Insecticidal activity against Liposcelis entomophila in compound pre-treated maize grains assessed as decrease in progeny production at 8 ppm after 30 days; format: functional, organism-based
# [39] = tested on: Liposcelis bostrychophila; test: Insecticidal activity against Liposcelis bostrychophila (booklice) in compound pre-treated maize grains assessed as decrease in progeny production at 8 ppm after 30 days; format: functional, organism-based
# [40] = tested on: Liposcelis bostrychophila; test: Insecticidal activity against Liposcelis bostrychophila (booklice) in compound pre-treated maize grains assessed as mortality at 8 ppm after 14 days (reference value: 13.5 +/-5.3%); format: functional
# [41] = tested on: Liposcelis paeta; test: Insecticidal activity against Liposcelis paeta in compound pre-treated maize grains assessed as mortality at 8 ppm after 7 days (reference value: 13.3 +/-3.3%); format: functional
# [42] = tested on: Lepinotus reticulatus; test: Insecticidal activity against Lepinotus reticulatus in compound pre-treated maize grains assessed as decrease in progeny production at 8 ppm after 30 days; format: functional, organism-based
# [43] = tested on: Lepinotus reticulatus; test: Insecticidal activity against Lepinotus reticulatus in compound pre-treated maize grains assessed as mortality at 8 ppm after 14 days (reference value: 61.1 +/-11.9%); format: functional
# [44] = tested on: Lepinotus reticulatus; test: Insecticidal activity against Lepinotus reticulatus in compound pre-treated maize grains assessed as mortality at 8 ppm after 7 days (reference value: 34.4 +/-11.4%); format: functional
structure (smiles),measurement,setting,value
CC[C@H]1CCC[C@H](O[C@H]2CC[C@H](N(C)C)[C@@H](C)O2)[C@@H](C)C(=O)C2=C[C@@H]3[C@@H](C=C(C)[C@@H]4C[C@@H](O[C@@H]5O[C@@H](C)[C@H](OC)[C@@H](OC)[C@H]5OC)C[C@@H]34)[C@@H]2CC(=O)O1.CC[C@H]1CCC[C@H](O[C@H]2CC[C@H](N(C)C)[C@@H](C)O2)[C@@H](C)C(=O)C2=C[C@@H]3[C@@H](C=C[C@@H]4C[C@@H](O[C@@H]5O[C@@H](C)[C@H](OC)[C@@H](OC)[C@H]5OC)C[C@@H]34)[C@@H]2CC(=O)O1,inhibition,[1],Active
same,mortality at 1 ppm,[2],55.6%
same,mortality at 1 ppm,[3],75.6%
same,inhibition,[4],inactive
same,mortality at 1 ppm,[5],96.7%
same,mortality at 1 ppm,[6],46.7%
same,mortality at 1 ppm,[7],71.1%
same,mortality at 1 ppm,[8],94.5%
same,mortality at 1 ppm,[9],90%
same,mortality at 1 ppm,[10],74.5%
same,inhibition,[11],inactive
same,mortality at 1 ppm,[12],100%
same,inhibition,[13],Active
same,mortality at 1 ppm,[14],98.9%
same,mortality at 1 ppm,[15],45.7%
same,mortality at 1 ppm,[16],71.1%
same,inhibition,[17],Active
same,mortality at 1 ppm,[18],10%
same,inhibition,[19],Active
same,mortality at 1 ppm,[20],61.2%
same,mortality at 1 ppm,[21],84.4%
same,mortality at 1 ppm,[22],52.2%
same,mortality at 1 ppm,[23],37.8%
same,mortality at 1 ppm,[24],52.3%
same,inhibition,[25],Active
same,mortality at 1 ppm,[26],48.9%
same,mortality at 1 ppm,[27],94.4%
same,mortality at 1 ppm,[28],80%
same,mortality at 1 ppm,[29],16.7%
same,mortality at 1 ppm,[30],76.4%
same,inhibition,[31],inactive
same,inhibition,[32],Active
same,mortality at 1 ppm,[33],18.8%
CCN(CC)c1nc(C)cc(OP(=S)(OC)OC)n1 [PIRIMIPHOS METHYL],mortality at 8 ppm,[34],100%
same,mortality at 8 ppm,[35],100%
same,mortality at 8 ppm,[36],100%
same,mortality at 8 ppm,[37],100%
same,inhibition,[38],Active
same,inhibition,[39],Active
same,mortality at 8 ppm,[40],100%
same,mortality at 8 ppm,[41],97.8%
same,inhibition,[42],Active
same,mortality at 8 ppm,[43],100%
same,mortality at 8 ppm,[44],100%
